According to US11160758B2, “Modified release formulations and uses thereof” (Sunovion Pharmaceuticals Inc., priority 2019, dated 2021):

Legend:
freely moving rats = test: Sleep study of (R)-amisulpride, EEG/EMG (Example 3A); format: in vivo, rat; conditions: 10, 30, 100 mg/kg, p.o.
Method: Rapid eye movement (REM) sleep time, non-rapid eye movement (NREM) sleep time, WAKE time were measured using electroencephalogram (EEG) and electromyogram (EMG) recordings. […] EEG and EMG recordings were made for 6 hr starting at the beginning of the light phase. Vehicle (0.05 N HCl/0.5% Methyl Cellulose 400 solution) or dosing suspensions were orally administered 10 min before the beginning of light phase. The volume of administration was 5 mL/kg. The order of drug treatment varied pseudo-randomly and at least 1 week was allowed between the experiments for individual animals.
A radio transmitter (TL11M2-F40-EET; Data Science International, New Brighton, Minn., USA) was implanted subcutaneously in the back of anesthetized animals, and a pair of electrode wires was stereotaxically implanted into the skull in the following locations: one in the frontoparietal (2 mm anterior to the bregma and 2 mm left to the midline), and the other in parietal (5 mm posterior to the bregma and 2 mm right to the midline) areas. The EEG electrodes were fixed using dental cement. Electromyograms (EMG) were recorded from the dorsal neck muscle. […] EEG/EMG were recorded in the home cages in a soundproof box using Dataquest A.R.T. software (Data Science International, New Brighton, Minn., USA) at a sampling rate of 500 Hz. […]

healthy volunteers [1] = test: REM suppression polysomnography (PSG) study of (R)-amisulpride (Example 5); format: in vivo, human
Method: REM suppression was the biomarker used to determine clinically-significant levels of 5-HT7 antagonism and its pharmacodynamics. REM suppression was assessed by total time in minutes spent in REM sleep and by the latency in minutes to REM sleep. […] REM suppression in human volunteers is an established translational biomarker useful to identify doses for antidepressant effects in patients.
The primary endpoint was REM sleep suppression as determined at post dose time points in the measures of latency to REM sleep, REM sleep time in minutes, and percent decrease in REM sleep time relative to total sleep time.
The REM suppression time value is the Least Square Mean differences from placebo, and the error bars represent the 90% confidence interval (CI).
The results presented in Tables 21-23 were determined from an analysis of the date based on a linear mixed model with terms for treatment, period, and treatment sequence as fixed effects, respective baseline PSG value as a continuous covariate, and treatment-by-baseline PSG interaction, and subject nested within sequence as a random effect, the Kenward and Roger correction for the degrees of freedom and an unstructured covariance structure to model the intrasubject correlation. The abbreviations used in Tables 21-23 are as follows: PSG=polysomnography; CI=confidence interval; LS=least-squares; REM=rapid eye movement; SE=standard error.

clinical = conditions: human, in vivo
healthy volunteers [2] = test: concentration-QTc analysis, linear mixed-effects model (Example 7A); format: in vivo, human
Method: The effect of amisulpride (enantiomers and total) on change-from-baseline QTcF and heart rate (ΔQTcF and ΔHR) was evaluated based on a linear mixed-effects model at each nominal post-dosing time point (“by-time point analysis”) using the intersection union test. In the concentration-QTc analysis (primary analysis), the full model included ΔQTcF as the dependent variable, time-matched plasma concentrations of R- and S- and total amisulpride enantiomers as the explanatory variates, centered baseline QTcF (i.e., baseline QTcF for individual subject subtracting the population mean baseline QTcF for all subjects) as an additional covariate, a fixed intercept, and random effect for both intercept and slopes per subject, when applicable. A pre-specified model selection procedure was then performed to choose a primary model from among the full model and reduced models from possible first order combinations (without quadratic and interaction terms) among these 3 analytes of concentrations of R- and S-enantiomers and total amisulpride (including models with only 1 analyte and with any 2 analytes).
The observations and a linear mixed-effects model parameters derived therefrom was used to estimate the ΔQTcF at the observed Cmax of the formulation Lots studied.

[3] = human, in vivo, po
[4] = Coukell et al 1996; cited from earlier work
[5] = linear mixed-effects model, total amisulpride concentration vs ΔQTcF

With `CCN1CCC[C@@H]1CNC(=O)c1cc(S(=O)(=O)CC)c(N)cc1OC` [(R)-amisulpride, R-4-Amino-N-[(1-ethyl-2-pyrrolidinyl)methyl]-5-(ethylsulfonyl)-2-methoxybenzamide] the “NREM sleep time and WAKE time” value (freely moving rats) was “no observed effect”, the REM sleep duration (freely moving rats; light phase) was “reduced REM sleep duration in dose-dependent manner” and the tolerability (healthy volunteers [1]; healthy subjects) was “well tolerated”. The “vital signs and ECGs” value (healthy volunteers [1]; in vivo) was “normal”.
With `CCN1CCCC1CNC(=O)c1cc(S(=O)(=O)CC)c(N)cc1OC` (stereo not drawn) [amisulpride, 4-amino-N-[(1-ethylpyrrolidin-2-yl)methyl]-5-ethylsulfonyl-2-methoxy-benzamide] the concentration at 0.5 hr (clinical) was 346 ng/mL, the concentration at 1 hr (clinical) was 294 ng/mL and the concentration at 2 hr (clinical) was 432 ng/mL. For the same compound, the concentration at 3 hr (clinical) was 516 ng/mL, the concentration at 4 hr (clinical) was 272 ng/mL and the concentration at 6 hr (clinical) was 163 ng/mL. For the same compound, the concentration at 8 hr (clinical) was 96.8 ng/mL, the concentration at 10 hr (clinical) was 69.9 ng/mL and the concentration at 12 hr (clinical) was 55.6 ng/mL. It also gave a concentration at 24 hr (clinical) of 21.2 ng/mL, a concentration at 36 hr (clinical) of 9.84 ng/mL and a concentration at 48 hr (clinical) of 7.02 ng/mL. The concentration at 72 hr (clinical) was 1.48 ng/mL, the “estimated population slope of the concentration-QTc relationship” value (healthy volunteers [2]; 90% CI: 0.0257 to 0.0369) was 0.031 ms per ng/mL and the “intercept of the concentration-QTc relationship” value (healthy volunteers [2]; 90% CI: −4.88 to 0.27) was -2.3 ms. For the same compound, the “Centered Baseline Effect of concentration-QTc relationship model” value (healthy volunteers [2]; [5]) was -0.23 ms, the “Intercept of concentration-QTc relationship model” value (healthy volunteers [2]; [5]) was -2.31 ms and the “Total Amisulpride Slope of concentration-QTc relationship model” value (healthy volunteers [2]; [5]) was 0.031 ms per ng/mL. The “washout observed for blood plasma concentration” value [3] was “approximately 24 hour” and the terminal plasma half-life [4] was “approximately 12 hours”.
